Values quoted from earlier work in patent US20120095034A1, “PIPERIDINE DERIVATIVES USEFUL AS OREXIN RECEPTOR ANTAGONISTS” (priority 2007, published 2012).
No end group written: not given here.

System: rats
Conditions: central administration at the onset of the normal sleep period, rat

## orexin-A: ligand for the orexin-1 receptor; an agonist of the orexin receptors (QPLPDCCRQKTCSCRLYELLHGAGNHAAGILTL; ends and bridges not checked; cysteine pairing not given here; UniProt O43612 34-66, looked up)
  arousal: dose-related increase in arousal
